In ChEMBL document CHEMBL5291721, “A preclinical secondary pharmacology resource illuminates target-adverse drug reaction associations of marketed drugs” (Nat Commun, 2023):

How the values were obtained:
[1] = biological target: T1, Alpha-2C adrenergic receptor (Homo sapiens, UniProt P18825); type: functional
T1 sequence (P18825 whole entry): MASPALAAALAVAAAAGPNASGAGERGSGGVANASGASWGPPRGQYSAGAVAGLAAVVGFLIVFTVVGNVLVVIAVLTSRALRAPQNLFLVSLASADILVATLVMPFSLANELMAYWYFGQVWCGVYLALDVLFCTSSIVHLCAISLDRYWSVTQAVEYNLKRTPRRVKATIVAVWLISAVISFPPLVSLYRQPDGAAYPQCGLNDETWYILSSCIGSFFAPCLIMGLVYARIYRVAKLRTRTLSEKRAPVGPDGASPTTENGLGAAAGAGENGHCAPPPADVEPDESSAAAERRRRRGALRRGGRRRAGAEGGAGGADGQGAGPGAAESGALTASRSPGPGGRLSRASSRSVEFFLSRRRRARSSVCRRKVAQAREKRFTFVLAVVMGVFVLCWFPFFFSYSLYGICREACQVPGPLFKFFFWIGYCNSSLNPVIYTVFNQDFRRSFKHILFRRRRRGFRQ

Vasopressin V2 receptor = Vasopressin V2 receptor (Homo sapiens, UniProt P30518)
[2] = biological target: Muscarinic acetylcholine receptor M3 (Homo sapiens, UniProt P20309)
[3] = biological target: Neuronal acetylcholine receptor subunit alpha-4 (Homo sapiens, UniProt P43681)
[4] = biological target: T2, Gamma-aminobutyric acid receptor subunit alpha-1 (Rattus norvegicus, UniProt P62813)
[5] = biological target: T2, Gamma-aminobutyric acid receptor subunit alpha-1; type: functional
[6] = biological target: T3, 5-hydroxytryptamine receptor 1A (Homo sapiens, UniProt P08908); type: functional, cell-based
T3 sequence (P08908 whole entry): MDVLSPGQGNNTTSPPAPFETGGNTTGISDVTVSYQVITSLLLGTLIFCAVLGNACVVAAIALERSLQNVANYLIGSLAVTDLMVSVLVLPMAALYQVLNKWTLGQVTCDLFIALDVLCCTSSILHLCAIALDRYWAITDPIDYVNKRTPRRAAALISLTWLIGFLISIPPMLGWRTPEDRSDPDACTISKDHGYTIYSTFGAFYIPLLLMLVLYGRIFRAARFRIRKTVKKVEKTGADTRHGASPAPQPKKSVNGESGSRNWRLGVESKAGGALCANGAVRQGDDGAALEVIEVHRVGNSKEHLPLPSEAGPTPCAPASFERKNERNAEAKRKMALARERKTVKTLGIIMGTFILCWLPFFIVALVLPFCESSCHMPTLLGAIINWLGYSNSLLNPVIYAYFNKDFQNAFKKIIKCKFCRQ

[7] = biological target: 5-hydroxytryptamine receptor 2A (Homo sapiens, UniProt P28223); type: functional, cell-based
[8] = biological target: 5-hydroxytryptamine receptor 2B (Homo sapiens, UniProt P41595); type: functional, cell-based
[9] = biological target: Kappa-type opioid receptor (Homo sapiens, UniProt P41145)
[10] = biological target: Sodium-dependent serotonin transporter (Homo sapiens, UniProt P31645)
D(3) dopamine receptor = D(3) dopamine receptor (Homo sapiens, UniProt P35462)
[11] = biological target: T4, Alpha-1A adrenergic receptor (Homo sapiens, UniProt P35348); type: functional, cell-based
T4 sequence (P35348 whole entry): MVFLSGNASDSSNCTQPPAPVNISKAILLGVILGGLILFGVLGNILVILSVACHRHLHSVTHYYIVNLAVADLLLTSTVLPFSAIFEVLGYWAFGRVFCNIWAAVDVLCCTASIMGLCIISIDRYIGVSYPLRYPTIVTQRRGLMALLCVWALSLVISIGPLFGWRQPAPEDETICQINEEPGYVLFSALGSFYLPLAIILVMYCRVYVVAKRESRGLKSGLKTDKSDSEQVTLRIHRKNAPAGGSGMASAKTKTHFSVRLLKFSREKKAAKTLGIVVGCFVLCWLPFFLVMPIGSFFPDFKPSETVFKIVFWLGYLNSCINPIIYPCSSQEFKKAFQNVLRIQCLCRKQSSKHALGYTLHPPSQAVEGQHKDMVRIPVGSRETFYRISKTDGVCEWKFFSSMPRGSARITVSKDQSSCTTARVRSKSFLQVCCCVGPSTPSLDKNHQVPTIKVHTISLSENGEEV

[12] = biological target: T5, Gastrin/cholecystokinin type B receptor (Homo sapiens, UniProt P32239)
T5 sequence (P32239 whole entry): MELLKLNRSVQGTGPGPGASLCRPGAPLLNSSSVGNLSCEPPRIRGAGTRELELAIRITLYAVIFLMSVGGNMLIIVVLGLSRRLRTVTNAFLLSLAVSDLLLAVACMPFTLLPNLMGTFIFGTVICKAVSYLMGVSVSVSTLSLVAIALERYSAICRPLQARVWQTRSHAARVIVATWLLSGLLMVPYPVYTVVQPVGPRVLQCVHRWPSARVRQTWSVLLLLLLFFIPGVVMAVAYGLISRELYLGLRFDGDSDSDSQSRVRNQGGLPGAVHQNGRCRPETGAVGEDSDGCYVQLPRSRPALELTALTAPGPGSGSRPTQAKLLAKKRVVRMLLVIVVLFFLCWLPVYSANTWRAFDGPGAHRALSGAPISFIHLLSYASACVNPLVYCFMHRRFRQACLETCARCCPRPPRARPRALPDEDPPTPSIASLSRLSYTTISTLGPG

Cannabinoid receptor 1 = Cannabinoid receptor 1 (Homo sapiens, UniProt P21554); type: functional, cell-based
Endothelin-1 receptor = biological target: T6, Endothelin-1 receptor (Homo sapiens, UniProt P25101)
T6 sequence (P25101 whole entry): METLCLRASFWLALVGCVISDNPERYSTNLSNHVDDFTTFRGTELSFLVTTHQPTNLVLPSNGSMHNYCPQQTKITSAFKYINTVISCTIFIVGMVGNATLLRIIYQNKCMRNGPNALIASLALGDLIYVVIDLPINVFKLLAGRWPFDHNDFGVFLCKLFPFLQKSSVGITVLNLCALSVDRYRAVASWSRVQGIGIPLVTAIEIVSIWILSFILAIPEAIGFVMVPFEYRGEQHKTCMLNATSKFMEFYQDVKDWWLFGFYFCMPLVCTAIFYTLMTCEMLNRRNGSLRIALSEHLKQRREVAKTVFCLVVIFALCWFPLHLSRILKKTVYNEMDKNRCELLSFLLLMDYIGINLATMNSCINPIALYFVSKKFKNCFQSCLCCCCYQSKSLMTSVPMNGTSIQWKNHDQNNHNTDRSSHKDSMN
Further: assay procedure not described here.

Chain of Kappa-type opioid receptor (P41145 whole entry): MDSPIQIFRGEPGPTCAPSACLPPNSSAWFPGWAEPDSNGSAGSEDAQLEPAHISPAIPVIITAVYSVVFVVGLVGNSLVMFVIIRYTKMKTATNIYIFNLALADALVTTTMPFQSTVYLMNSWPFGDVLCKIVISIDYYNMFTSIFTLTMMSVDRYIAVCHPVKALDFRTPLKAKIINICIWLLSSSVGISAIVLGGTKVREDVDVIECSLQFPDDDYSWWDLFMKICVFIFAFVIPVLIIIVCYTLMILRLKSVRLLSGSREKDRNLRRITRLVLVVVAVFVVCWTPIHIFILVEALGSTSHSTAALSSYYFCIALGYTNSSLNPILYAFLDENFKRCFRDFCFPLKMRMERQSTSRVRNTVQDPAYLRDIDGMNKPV
Chain of Cannabinoid receptor 1 (P21554 whole entry): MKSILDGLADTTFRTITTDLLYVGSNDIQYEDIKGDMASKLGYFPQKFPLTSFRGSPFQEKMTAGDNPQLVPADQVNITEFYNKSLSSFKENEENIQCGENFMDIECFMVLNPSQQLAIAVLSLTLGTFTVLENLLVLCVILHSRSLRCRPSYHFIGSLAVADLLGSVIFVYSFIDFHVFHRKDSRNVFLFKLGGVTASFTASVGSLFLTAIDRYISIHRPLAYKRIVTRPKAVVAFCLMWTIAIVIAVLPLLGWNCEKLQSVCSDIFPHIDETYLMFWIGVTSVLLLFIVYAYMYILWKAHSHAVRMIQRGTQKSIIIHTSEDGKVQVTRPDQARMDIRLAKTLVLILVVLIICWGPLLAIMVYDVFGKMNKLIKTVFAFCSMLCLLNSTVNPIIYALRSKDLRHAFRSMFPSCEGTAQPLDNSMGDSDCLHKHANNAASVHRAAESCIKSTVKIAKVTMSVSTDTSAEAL
Chain of 5-hydroxytryptamine receptor 2B (P41595 whole entry): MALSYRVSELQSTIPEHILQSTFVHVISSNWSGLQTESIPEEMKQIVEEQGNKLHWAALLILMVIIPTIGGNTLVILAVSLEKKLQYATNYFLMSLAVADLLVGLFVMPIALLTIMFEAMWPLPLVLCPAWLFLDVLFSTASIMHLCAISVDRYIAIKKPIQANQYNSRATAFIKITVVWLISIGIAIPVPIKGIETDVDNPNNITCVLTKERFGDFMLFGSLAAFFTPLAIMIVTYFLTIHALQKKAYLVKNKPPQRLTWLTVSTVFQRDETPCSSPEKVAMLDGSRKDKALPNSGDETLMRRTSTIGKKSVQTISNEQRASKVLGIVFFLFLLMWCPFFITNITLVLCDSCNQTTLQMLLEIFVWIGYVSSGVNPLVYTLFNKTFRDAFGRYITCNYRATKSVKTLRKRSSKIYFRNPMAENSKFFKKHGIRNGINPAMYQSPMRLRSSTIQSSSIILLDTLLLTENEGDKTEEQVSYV
T2 sequence (P62813 whole entry): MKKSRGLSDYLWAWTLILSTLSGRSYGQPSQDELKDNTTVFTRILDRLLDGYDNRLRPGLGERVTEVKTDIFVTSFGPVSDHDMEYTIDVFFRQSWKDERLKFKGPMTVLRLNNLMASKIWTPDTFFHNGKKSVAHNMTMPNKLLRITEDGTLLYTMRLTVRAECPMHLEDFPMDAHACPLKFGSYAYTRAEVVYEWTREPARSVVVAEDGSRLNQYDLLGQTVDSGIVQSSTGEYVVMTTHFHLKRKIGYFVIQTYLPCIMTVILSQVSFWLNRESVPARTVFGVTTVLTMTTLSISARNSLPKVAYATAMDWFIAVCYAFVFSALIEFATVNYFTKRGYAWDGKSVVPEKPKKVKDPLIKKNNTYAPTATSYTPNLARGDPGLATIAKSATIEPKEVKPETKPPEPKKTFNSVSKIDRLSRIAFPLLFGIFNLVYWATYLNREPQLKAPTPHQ
Chain of D(3) dopamine receptor (P35462 whole entry): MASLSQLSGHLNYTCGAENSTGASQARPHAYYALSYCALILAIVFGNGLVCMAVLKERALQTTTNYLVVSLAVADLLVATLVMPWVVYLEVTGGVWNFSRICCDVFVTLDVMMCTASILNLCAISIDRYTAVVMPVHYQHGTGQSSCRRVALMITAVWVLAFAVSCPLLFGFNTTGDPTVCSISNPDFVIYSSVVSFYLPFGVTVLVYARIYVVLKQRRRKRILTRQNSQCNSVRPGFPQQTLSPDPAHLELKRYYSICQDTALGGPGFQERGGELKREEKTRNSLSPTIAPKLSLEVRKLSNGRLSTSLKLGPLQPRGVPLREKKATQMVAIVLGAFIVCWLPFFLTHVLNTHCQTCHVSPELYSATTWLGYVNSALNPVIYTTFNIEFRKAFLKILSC
Chain of Vasopressin V2 receptor (P30518 whole entry): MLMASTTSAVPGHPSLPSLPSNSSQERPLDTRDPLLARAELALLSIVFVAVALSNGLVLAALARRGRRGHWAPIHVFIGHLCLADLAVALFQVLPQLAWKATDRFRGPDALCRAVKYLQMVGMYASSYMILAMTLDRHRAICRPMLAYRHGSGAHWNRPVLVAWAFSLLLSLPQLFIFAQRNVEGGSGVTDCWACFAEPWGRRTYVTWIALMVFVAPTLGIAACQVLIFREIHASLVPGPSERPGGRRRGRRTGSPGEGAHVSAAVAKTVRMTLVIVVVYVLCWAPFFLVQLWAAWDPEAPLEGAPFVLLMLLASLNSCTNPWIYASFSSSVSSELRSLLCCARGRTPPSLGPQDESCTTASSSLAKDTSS
Chain of Sodium-dependent serotonin transporter (P31645 whole entry): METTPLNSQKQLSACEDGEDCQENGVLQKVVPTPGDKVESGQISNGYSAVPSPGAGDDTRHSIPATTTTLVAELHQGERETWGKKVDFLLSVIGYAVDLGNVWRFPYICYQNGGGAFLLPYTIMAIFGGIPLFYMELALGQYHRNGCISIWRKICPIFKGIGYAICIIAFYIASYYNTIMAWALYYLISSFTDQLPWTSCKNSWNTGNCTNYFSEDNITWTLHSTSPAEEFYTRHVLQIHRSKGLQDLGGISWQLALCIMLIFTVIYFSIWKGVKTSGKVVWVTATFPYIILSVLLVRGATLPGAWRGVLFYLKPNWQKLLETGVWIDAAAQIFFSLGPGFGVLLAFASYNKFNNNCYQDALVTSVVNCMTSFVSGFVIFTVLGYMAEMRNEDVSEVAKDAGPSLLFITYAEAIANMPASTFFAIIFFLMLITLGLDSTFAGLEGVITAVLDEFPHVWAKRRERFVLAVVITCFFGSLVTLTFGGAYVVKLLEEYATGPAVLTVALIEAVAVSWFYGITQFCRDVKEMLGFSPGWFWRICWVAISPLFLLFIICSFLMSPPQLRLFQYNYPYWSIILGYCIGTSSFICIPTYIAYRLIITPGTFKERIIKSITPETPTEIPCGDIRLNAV
Chain of 5-hydroxytryptamine receptor 2A (P28223 whole entry): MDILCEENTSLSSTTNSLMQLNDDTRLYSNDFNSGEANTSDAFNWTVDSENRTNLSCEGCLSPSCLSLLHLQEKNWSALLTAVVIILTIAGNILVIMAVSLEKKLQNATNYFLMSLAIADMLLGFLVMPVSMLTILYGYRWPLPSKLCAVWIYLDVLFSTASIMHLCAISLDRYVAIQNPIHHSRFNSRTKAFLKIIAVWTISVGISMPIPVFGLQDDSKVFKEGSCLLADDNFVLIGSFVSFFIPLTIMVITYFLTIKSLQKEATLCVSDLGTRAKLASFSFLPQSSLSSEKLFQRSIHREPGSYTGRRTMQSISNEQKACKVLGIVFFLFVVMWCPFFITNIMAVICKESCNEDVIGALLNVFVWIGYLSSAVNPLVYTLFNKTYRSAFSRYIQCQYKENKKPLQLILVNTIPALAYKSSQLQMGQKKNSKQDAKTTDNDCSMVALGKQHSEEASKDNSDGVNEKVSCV
Chain of Muscarinic acetylcholine receptor M3 (P20309 whole entry): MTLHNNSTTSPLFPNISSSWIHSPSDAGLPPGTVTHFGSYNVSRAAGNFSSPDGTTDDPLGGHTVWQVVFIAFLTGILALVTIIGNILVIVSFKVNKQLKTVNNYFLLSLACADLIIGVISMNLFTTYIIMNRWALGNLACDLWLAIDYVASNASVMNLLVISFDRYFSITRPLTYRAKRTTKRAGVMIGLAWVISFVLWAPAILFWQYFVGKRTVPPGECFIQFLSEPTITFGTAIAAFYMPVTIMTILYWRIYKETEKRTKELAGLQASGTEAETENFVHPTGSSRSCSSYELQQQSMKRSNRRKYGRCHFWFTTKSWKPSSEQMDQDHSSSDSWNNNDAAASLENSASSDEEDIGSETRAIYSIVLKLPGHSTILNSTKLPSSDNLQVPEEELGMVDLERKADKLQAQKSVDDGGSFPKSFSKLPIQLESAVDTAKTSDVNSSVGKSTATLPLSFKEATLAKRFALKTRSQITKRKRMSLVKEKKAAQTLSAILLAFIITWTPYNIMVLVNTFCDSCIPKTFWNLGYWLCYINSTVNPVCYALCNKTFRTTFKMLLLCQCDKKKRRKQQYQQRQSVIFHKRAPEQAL
Chain of Neuronal acetylcholine receptor subunit alpha-4 (P43681 whole entry): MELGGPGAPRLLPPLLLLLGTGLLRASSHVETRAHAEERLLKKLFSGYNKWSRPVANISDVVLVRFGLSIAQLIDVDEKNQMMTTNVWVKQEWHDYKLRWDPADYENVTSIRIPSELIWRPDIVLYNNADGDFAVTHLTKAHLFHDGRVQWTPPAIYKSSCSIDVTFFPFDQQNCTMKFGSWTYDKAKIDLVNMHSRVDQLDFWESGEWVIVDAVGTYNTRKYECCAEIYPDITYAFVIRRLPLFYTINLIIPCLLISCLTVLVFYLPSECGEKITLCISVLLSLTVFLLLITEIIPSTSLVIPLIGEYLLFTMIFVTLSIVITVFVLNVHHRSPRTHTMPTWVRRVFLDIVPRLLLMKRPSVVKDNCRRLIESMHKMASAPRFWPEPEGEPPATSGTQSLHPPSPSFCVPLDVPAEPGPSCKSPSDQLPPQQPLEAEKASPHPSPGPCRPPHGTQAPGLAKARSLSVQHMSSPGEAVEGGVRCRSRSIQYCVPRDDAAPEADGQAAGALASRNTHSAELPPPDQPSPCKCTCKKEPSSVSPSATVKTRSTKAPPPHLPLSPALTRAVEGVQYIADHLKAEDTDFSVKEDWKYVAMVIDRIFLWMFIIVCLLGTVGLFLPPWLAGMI

Compound	AC50 [1]	AC50 (Vasopressin V2 receptor)	AC50 [2]	AC50 [3]	AC50 [4]	AC50 [5]	AC50 [6]	AC50 [7]	AC50 [8]	AC50 [9]	AC50 [10]	AC50 (D(3) dopamine receptor)	AC50 [11]	AC50 [12]	AC50 (Cannabinoid receptor 1)	AC50 (Endothelin-1 receptor)
CN1C(=O)CC(=O)N(c2ccccc2)c2cc(Cl)ccc21 [CLOBAZAM]	> 10 µM	> 10 µM	> 30 µM	> 10 µM	> 10 µM	0.3 µM	> 10 µM	> 10 µM	> 10 µM	14.1 µM	> 10 µM	> 30 µM				
COc1ccc2cccc(CCNC(C)=O)c2c1 [AGOMELATINE]	> 10 µM	> 30 µM	> 10 µM	> 10 µM	> 10 µM	> 10 µM	> 30 µM		2.07 µM	> 10 µM	> 10 µM	> 10 µM	> 30 µM	> 30 µM	> 30 µM	> 30 µM
C#CC1(OC(N)=O)CCCCC1 [ETHINAMATE]	> 10 µM	> 10 µM	> 30 µM	> 10 µM	> 10 µM	> 10 µM	> 10 µM	> 10 µM	> 10 µM	> 10 µM	> 10 µM	> 30 µM				
O=C(CCCCC(=O)Nc1c(I)cc(I)c(C(=O)O)c1I)Nc1c(I)cc(I)c(C(=O)O)c1I [IODIPAMIDE]	> 10 µM	> 10 µM	> 30 µM	> 10 µM	> 10 µM	> 10 µM	> 10 µM	> 10 µM	> 10 µM	> 10 µM	> 10 µM	> 30 µM				
CC(C)C(=O)OCC(=O)[C@@]12O[C@H](C3CCCCC3)O[C@@H]1C[C@H]1[C@@H]3CCC4=CC(=O)C=C[C@]4(C)[C@H]3[C@@H](O)C[C@@]12C [CICLESONIDE]	> 10 µM	> 10 µM	> 30 µM	> 10 µM	> 30 µM	> 10 µM	> 10 µM	> 10 µM	> 10 µM	9.72 µM	> 10 µM	> 30 µM	> 30 µM		> 30 µM	
CN1C(=O)CC(c2ccccc2)C1=O (stereo unspecified) [PHENSUXIMIDE]	> 10 µM	> 10 µM	> 30 µM	> 10 µM	> 10 µM	> 10 µM	> 10 µM	> 10 µM	> 10 µM	> 10 µM	> 10 µM	> 30 µM			> 30 µM	
CC(=O)OCC(=O)[C@@]12OC3(CCCC3)O[C@@H]1C[C@H]1[C@@H]3CCC4=CC(=O)C=C[C@]4(C)[C@@]3(F)[C@@H](O)C[C@@]12C [AMCINONIDE]	> 10 µM	> 10 µM	> 30 µM	> 10 µM	> 10 µM	> 10 µM	> 10 µM	> 10 µM	> 10 µM	> 10 µM	> 10 µM	> 30 µM				
CCC1(C2=CCCCCC2)C(=O)NC(=O)NC1=O [HEPTABARBITAL]	> 10 µM	> 10 µM	> 30 µM	> 10 µM	> 10 µM	> 10 µM	> 10 µM	> 10 µM	> 10 µM	> 10 µM	> 10 µM	> 30 µM	> 30 µM		> 30 µM	
CN1CC[C@]23CCCC[C@H]2[C@H]1Cc1ccc(O)cc13 [LEVORPHANOL]	> 30 µM	> 10 µM	> 30 µM	> 10 µM	> 10 µM	> 10 µM	> 10 µM	> 10 µM	> 10 µM	5.85 µM	0.173 µM	> 30 µM				
CC(=O)NS(=O)(=O)c1ccc(N)cc1 [SULFACETAMIDE]	> 10 µM	> 10 µM	> 30 µM	> 10 µM	> 10 µM	> 10 µM	> 10 µM	> 10 µM	> 10 µM	> 10 µM	> 10 µM	> 30 µM				
CC1=CC(=O)c2ccccc2C1=O [MENADIONE]	> 30 µM	> 10 µM	> 30 µM	> 10 µM	> 10 µM	> 10 µM	> 10 µM	> 10 µM	> 10 µM	> 10 µM	> 10 µM	> 30 µM				
CN1CCCN=C1COC(=O)C(O)(c1ccccc1)C1CCCCC1 (stereo unspecified) [OXYPHENCYCLIMINE]	> 10 µM	> 10 µM	> 30 µM	> 10 µM	> 10 µM	> 10 µM	> 10 µM	> 10 µM	> 10 µM	> 10 µM	> 30 µM	> 30 µM				
CC(C)[N+](C)(CCC(C(N)=O)(c1ccccc1)c1ccccc1)C(C)C [ISOPROPAMIDE]	> 10 µM	> 10 µM	0.0056 µM	> 10 µM	> 10 µM	> 10 µM	> 10 µM	> 10 µM	> 10 µM	> 10 µM	> 10 µM	> 30 µM				
CN1CCC2=C(C1)C(c1ccccc1)c1ccccc12 (stereo unspecified) [PHENINDAMINE]	12 µM	> 10 µM	> 30 µM	> 10 µM	> 10 µM	> 10 µM	> 10 µM	> 10 µM	> 10 µM	> 10 µM	> 30 µM	> 30 µM				
